Tests used:
Assay in all cases: KinaseProfiler kinase panel
Format in all cases: biochemical
[1] = biological target: Flt3(D835Y)(h) (Homo sapiens (Human), UniProt P36888, D835Y)
[2] = biological target: CLK2(h) (Homo sapiens (Human), UniProt P49760)
[3] = biological target: cKit(D816H)(h) (Homo sapiens (Human), UniProt P10721, D816H)
[4] = biological target: CDK3/cyclinE(h) (Homo sapiens (Human), UniProt Q00526)
[5] = biological target: Ret(V804M)(h) (Homo sapiens (Human), UniProt P07949, V804M)
[6] = biological target: Ret (V804L)(h) (Homo sapiens (Human), UniProt P07949, V804L)
[7] = biological target: CDK9/cyclin T1(h) (Homo sapiens (Human), UniProt P50750)
[8] = biological target: CaMKIIδ(h) (Homo sapiens (Human), UniProt Q13557)
[9] = biological target: LOK(h) (Homo sapiens (Human), UniProt O94804)
[10] = biological target: SAPK4(h) (Homo sapiens (Human), UniProt O15264)
[11] = biological target: CK2(h) (Homo sapiens (Human), UniProt P68400)
[12] = biological target: GSK3α(h) (Homo sapiens (Human), UniProt P49840)
[13] = biological target: Hck(h) activated (Homo sapiens (Human), UniProt P08631)
[14] = biological target: GSK3β(h) (Homo sapiens (Human), UniProt P49841)
[15] = biological target: ROCK-II(r) (Rattus norvegicus (Rat), UniProt Q62868)
[16] = biological target: MEK1(h) (Homo sapiens (Human), UniProt Q02750)
[17] = biological target: Met(D1246N)(h) (Homo sapiens (Human), UniProt P08581, D1246N)
[18] = biological target: NLK(h) (Homo sapiens (Human), UniProt Q9UBE8)
[19] = biological target: PAR-1Bα(h) (Homo sapiens (Human), UniProt Q7KZI7)
[20] = biological target: SAPK2a(T106M)(h) (Homo sapiens (Human), UniProt Q16539, T106M)
[21] = biological target: PhKγ2(h) (Homo sapiens (Human), UniProt P15735)
[22] = biological target: BrSK2(h) (Homo sapiens (Human), UniProt Q8IWQ3)
[23] = biological target: CDK6/cyclinD3(h) (Homo sapiens (Human), UniProt Q00534)
[24] = biological target: EphA7(h) (Homo sapiens (Human), UniProt Q15375)
[25] = biological target: SAPK2b(h) (Homo sapiens (Human), UniProt Q15759)
[26] = biological target: MAPK1(h) (Homo sapiens (Human), UniProt P27361)
[27] = biological target: PKCα(h) (Homo sapiens (Human), UniProt P17252)
[28] = biological target: Syk(h) (Homo sapiens (Human), UniProt P43405)
[29] = biological target: GRK5(h) (Homo sapiens (Human), UniProt P34947)
[30] = biological target: ACK1(h) (Homo sapiens (Human), UniProt Q07912)
[31] = biological target: Pyk2(h) (Homo sapiens (Human), UniProt Q14289)
[32] = biological target: Txk(h) (Homo sapiens (Human), UniProt P42681)
[33] = biological target: Fer(h) (Homo sapiens (Human), UniProt P16591)
[34] = biological target: MKK4(m) (Mus musculus (Mouse), UniProt P47809)
[35] = biological target: PKCε(h) (Homo sapiens (Human), UniProt Q02156)
[36] = biological target: SRPK1(h) (Homo sapiens (Human), UniProt Q96SB4)
[37] = biological target: eEF-2K(h) (Homo sapiens (Human), UniProt O00418)
[38] = biological target: Ron(h) (Homo sapiens (Human), UniProt Q04912)
[39] = biological target: ZAP-70(h) (Homo sapiens (Human), UniProt P43403)

Sequence of CLK2(h) (P49760 whole entry): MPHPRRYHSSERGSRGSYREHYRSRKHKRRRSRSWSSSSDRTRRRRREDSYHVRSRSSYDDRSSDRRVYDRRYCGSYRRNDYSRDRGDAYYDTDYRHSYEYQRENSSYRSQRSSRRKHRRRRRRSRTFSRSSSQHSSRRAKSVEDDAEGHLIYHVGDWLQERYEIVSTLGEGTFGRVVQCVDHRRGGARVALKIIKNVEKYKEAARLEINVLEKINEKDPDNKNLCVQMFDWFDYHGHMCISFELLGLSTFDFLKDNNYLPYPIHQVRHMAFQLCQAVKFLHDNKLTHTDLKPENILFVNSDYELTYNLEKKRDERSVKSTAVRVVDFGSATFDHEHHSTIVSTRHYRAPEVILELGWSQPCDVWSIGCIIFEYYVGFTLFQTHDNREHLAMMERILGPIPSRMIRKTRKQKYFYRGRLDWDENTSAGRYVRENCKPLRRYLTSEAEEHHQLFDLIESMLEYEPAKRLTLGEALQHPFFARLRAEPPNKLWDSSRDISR
Sequence of MKK4(m) (P47809 whole entry): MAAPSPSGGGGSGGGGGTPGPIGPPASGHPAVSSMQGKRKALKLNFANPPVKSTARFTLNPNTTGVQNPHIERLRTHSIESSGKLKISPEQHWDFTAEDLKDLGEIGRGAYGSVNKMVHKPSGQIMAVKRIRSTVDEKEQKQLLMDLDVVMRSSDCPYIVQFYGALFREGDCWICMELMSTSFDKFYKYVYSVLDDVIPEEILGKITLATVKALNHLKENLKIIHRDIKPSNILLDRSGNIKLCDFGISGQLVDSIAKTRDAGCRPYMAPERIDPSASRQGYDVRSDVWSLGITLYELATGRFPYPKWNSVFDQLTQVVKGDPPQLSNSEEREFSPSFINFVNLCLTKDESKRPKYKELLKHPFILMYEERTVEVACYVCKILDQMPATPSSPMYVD
Sequence of Fer(h) (P16591 whole entry): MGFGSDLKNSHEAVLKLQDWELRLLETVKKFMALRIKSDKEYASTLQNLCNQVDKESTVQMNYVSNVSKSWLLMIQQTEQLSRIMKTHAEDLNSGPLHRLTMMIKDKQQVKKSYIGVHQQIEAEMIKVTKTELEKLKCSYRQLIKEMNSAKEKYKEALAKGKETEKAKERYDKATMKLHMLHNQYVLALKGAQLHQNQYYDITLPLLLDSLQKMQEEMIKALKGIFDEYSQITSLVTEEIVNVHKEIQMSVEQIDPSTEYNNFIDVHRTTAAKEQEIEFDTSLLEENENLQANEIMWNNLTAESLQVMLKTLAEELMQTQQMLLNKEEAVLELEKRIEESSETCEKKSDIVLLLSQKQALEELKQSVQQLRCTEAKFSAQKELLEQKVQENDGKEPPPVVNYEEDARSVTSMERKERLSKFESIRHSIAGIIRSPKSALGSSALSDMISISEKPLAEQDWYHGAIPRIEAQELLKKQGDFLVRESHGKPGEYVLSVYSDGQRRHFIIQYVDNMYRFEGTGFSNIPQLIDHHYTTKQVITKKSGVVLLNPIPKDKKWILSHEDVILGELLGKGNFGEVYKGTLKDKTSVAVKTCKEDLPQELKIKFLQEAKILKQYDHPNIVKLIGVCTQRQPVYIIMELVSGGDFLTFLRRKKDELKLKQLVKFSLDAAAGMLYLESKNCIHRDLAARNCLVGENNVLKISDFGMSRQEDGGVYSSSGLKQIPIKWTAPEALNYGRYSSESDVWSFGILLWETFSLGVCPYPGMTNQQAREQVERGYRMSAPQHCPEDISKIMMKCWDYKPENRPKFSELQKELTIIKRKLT
Sequence of BrSK2(h) (Q8IWQ3 whole entry): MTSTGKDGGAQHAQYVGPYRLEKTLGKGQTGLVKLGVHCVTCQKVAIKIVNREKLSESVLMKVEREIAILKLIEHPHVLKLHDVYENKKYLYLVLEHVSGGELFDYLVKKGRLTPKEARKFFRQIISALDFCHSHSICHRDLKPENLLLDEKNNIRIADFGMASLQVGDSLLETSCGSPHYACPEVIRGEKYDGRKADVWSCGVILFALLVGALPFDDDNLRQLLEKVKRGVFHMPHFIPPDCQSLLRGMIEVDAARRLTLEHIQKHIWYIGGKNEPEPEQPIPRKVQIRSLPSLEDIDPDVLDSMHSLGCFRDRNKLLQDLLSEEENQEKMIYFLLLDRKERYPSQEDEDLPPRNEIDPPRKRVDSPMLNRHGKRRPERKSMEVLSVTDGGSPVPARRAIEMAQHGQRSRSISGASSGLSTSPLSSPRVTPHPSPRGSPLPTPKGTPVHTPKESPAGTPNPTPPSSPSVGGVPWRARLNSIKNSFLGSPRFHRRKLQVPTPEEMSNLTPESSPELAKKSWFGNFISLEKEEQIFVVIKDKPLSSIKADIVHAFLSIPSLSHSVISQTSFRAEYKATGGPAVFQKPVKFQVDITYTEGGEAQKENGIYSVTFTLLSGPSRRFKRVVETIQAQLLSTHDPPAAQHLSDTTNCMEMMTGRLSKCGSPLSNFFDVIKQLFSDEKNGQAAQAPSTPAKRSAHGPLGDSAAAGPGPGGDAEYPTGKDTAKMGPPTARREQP
Sequence of CaMKIIδ(h) (Q13557 whole entry): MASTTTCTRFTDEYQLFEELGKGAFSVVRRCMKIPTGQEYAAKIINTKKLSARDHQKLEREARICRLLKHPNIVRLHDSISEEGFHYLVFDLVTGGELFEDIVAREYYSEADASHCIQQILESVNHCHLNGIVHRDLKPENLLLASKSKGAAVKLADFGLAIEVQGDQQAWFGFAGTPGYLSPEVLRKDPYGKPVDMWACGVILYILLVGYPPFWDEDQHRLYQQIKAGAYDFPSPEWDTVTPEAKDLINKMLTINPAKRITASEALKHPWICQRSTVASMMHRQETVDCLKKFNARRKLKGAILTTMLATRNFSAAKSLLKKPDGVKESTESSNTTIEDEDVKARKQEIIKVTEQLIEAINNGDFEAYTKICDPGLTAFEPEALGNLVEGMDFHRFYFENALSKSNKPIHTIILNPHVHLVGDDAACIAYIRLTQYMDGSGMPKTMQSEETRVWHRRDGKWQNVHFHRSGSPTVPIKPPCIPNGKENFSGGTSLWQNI
Sequence of Ret (V804L)(h) (P07949 29-1114 V804L): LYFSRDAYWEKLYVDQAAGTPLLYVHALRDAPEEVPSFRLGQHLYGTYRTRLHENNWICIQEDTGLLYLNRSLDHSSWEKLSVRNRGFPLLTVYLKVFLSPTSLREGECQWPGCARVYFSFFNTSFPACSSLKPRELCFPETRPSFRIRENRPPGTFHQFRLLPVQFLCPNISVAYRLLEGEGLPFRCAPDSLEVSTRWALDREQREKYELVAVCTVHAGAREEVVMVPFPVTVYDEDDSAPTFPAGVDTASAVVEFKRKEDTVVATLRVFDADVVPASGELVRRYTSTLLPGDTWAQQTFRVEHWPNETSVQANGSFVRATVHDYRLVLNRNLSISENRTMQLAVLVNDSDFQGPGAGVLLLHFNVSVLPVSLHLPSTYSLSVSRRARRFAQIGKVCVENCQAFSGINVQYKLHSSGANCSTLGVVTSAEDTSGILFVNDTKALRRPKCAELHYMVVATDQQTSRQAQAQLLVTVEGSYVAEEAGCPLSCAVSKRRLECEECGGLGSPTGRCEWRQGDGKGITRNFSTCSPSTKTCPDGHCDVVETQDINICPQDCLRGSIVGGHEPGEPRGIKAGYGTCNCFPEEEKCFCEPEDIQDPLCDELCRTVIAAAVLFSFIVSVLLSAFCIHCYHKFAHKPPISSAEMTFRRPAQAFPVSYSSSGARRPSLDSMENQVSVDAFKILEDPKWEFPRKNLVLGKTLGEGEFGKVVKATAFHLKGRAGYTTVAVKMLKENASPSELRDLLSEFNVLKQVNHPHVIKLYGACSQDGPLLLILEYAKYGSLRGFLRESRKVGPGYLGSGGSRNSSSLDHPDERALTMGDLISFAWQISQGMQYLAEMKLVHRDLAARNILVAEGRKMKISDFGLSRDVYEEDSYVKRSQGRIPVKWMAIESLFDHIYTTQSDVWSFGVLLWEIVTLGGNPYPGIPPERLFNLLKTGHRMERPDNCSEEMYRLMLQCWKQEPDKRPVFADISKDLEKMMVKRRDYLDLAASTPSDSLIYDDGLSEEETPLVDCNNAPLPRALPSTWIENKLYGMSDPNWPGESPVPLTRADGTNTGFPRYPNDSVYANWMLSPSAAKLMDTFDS
Sequence of SAPK2b(h) (Q15759 whole entry): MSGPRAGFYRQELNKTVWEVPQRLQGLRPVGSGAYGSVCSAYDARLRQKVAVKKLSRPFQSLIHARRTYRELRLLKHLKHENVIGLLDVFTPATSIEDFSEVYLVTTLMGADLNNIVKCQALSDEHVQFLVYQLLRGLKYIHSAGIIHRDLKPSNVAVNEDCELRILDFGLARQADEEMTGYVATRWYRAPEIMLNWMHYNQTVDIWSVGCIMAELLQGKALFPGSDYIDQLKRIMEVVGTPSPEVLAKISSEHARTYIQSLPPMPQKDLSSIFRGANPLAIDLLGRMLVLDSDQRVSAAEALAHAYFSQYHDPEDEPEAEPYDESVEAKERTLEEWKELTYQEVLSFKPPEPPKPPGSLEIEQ
Sequence of Hck(h) activated (P08631 whole entry): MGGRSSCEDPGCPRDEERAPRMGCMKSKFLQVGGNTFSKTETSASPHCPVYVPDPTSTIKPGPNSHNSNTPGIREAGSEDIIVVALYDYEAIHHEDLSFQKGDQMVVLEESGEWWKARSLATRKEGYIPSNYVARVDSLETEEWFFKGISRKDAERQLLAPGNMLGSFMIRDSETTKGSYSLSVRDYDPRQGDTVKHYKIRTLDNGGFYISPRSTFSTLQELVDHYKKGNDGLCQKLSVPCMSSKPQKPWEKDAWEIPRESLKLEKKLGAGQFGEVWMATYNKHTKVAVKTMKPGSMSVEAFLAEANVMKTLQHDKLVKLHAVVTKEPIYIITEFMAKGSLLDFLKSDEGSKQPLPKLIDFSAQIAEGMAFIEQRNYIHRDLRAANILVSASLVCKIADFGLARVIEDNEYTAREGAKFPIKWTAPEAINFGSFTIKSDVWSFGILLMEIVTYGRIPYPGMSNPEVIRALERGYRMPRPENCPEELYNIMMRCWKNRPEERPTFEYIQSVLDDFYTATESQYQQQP
Sequence of Ret(V804M)(h) (P07949 29-1114 V804M): as the sequence (P07949 29-1114 V804L) above, with L776M counted along it

remaining activity at 1 µM [1]: 1%
remaining activity at 1 µM [2]: 2%
remaining activity at 1 µM [3]: 6%
remaining activity at 1 µM [4]: 16%
remaining activity at 1 µM [5]: 20%
remaining activity at 1 µM [6]: 26%
remaining activity at 1 µM [7]: 27%
remaining activity at 1 µM [8]: 28%
remaining activity at 1 µM [9]: 50%
remaining activity at 1 µM [10]: 51%
remaining activity at 1 µM [11]: 59%
remaining activity at 1 µM [12]: 60%
remaining activity at 1 µM [13]: 63%
remaining activity at 1 µM [14]: 66%
remaining activity at 1 µM [15]: 71%
remaining activity at 1 µM [16]: 73%
remaining activity at 1 µM [17]: 74%
remaining activity at 1 µM [18]: 85%
remaining activity at 1 µM [19]: 85%
remaining activity at 1 µM [20]: 86%
remaining activity at 1 µM [21]: 88%
remaining activity at 1 µM [22]: 91%
remaining activity at 1 µM [23]: 91%
remaining activity at 1 µM [24]: 91%
remaining activity at 1 µM [25]: 91%
remaining activity at 1 µM [26]: 94%
remaining activity at 1 µM [27]: 95%
remaining activity at 1 µM [28]: 95%
remaining activity at 1 µM [29]: 96%
remaining activity at 1 µM [30]: 97%
remaining activity at 1 µM [31]: 97%
remaining activity at 1 µM [32]: 99%
remaining activity at 1 µM [33]: 100%
remaining activity at 1 µM [34]: 100%
remaining activity at 1 µM [35]: 104%
remaining activity at 1 µM [36]: 106%
remaining activity at 1 µM [37]: 107%
remaining activity at 1 µM [38]: 108%
remaining activity at 1 µM [39]: 108%
SMILES: CCn1c(N2CCNCC2)nc2c(Br)c(Br)c(Br)c(Br)c21 [Compound 416, 4,5,6,7-tetrabromo-1-ethyl-2-(piperazin-1-yl)-1H-benzo[d]imidazole]

Reference: patent publication US8604217B2, “Compound, a process for its preparation, a pharmaceutical composition, use of a compound, a method for modulating or regulating serine/threonine kinases and a serine/threonine kinases modulating agent” (Selvita S.A., priority 2009, dated 2013)
